System: free cholesterol absorption
Assay: short term hamster model tracking a bolus of gavaged radiolabeled cholesterol
Format: in vivo, Male Golden Syrian hamsters
Excerpt: To follow the movement of lipids across the intestinal wall leading to its subsequent appearance in the lymph, blood and liver, a short term hamster model which tracked a bolus of gavaged radiolabeled lipid was used. Free cholesterol absorption was examined in this hamster model to explore whether the cholesterol absorption inhibitor compound of Formula (XII): […]
Male Golden Syrian hamsters were fed a diet containing 0.5% cholesterol overnight and divided into groups of 5 animals. […] Two hours later, blood and liver samples were collected from each hamster. The blood was centrifuged for 20 minutes at 3000 rpm and the plasma was removed. Aliquots of the plasma and liver were analyzed for [^14C] radioactivity. Radioactive content was determined using a Beckman LSC (liquid […] counter).

[1] = hamsters fed 0.5% cholesterol diet, gavage 1 h before [14C]-cholesterol, samples two hours later, Compound XII 3 mg/kg, cholestyramine 1 g/kg
[2] = hamsters fed 0.5% cholesterol diet, samples two hours after [14C]-cholesterol, Compound XII 3 mg/kg, cholestyramine 1 g/kg
[3] = specified dosage (Compound XII 3 mg/kg, cholestyramine 1 g/kg)

## COc1ccc([C@@H]2[C@@H](CCCc3ccccc3)C(=O)N2c2ccc(OC)cc2)cc1 [Compound XII]
[1]
  Liver [14C]-cholesterol (DPM/gram of liver): 3755 ± 923 DPM/gram of liver
  Plasma [14C]-cholesterol (Decays Per Minute (DPM)/milliter of plasma): 1438 ± 455 DPM/milliter of plasma
[2]
  Liver [14C]-cholesterol, change versus Control (in brackets): −53%
  Plasma [14C]-cholesterol, change versus Control (in brackets): −71%
[3]
  reduction of liver (hepatic) [14C]-cholesterol levels: 53%
  reduction of plasma [14C]-cholesterol levels: 71%

From patent US20080261942A1, “COMBINATIONS OF BILE ACID SEQUESTRANT(S) AND STEROL ABSORPTION INHIBITOR(S) AND TREATMENTS FOR VASCULAR INDICATIONS” (SCHERING CORPORATION, priority 2001, published 2008)
